{"source": "ChEMBL document CHEMBL1132392", "about": "“Novel derivatives of 3-(dipropylamino)chroman. Interactions with 5-HT1A and D2A receptors” (Bioorg Med Chem Lett, 1999)", "key": {"D(2) dopamine receptor [1]": {"target": "T1, D(2) dopamine receptor (Homo sapiens, UniProt P14416)", "T1 sequence (P14416 whole entry)": "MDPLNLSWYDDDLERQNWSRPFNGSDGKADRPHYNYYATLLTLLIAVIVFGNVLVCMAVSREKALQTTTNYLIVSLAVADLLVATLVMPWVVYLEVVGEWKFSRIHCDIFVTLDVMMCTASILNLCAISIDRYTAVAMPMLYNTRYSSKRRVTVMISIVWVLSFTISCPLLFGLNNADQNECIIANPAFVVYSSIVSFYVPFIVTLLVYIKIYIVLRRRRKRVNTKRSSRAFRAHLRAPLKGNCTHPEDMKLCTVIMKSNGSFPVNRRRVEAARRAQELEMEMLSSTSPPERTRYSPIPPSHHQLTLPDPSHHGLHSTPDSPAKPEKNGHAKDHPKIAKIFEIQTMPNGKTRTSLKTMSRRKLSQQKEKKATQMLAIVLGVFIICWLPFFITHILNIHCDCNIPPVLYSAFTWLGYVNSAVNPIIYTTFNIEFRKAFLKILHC", "experiment": "Agonist activity against human D2A receptor; Active", "type": "functional"}, "D(2) dopamine receptor [2]": {"target": "T1, D(2) dopamine receptor", "experiment": "In vitro ability to inhibit [3H]raclopride binding to cloned human D2A receptors expressed in mouse fibroblast (LtK-) cells", "type": "cell-based"}, "[3]": {"target": "T2, 5-hydroxytryptamine receptor 1A (Rattus norvegicus, UniProt P19327)", "T2 sequence (P19327 whole entry)": "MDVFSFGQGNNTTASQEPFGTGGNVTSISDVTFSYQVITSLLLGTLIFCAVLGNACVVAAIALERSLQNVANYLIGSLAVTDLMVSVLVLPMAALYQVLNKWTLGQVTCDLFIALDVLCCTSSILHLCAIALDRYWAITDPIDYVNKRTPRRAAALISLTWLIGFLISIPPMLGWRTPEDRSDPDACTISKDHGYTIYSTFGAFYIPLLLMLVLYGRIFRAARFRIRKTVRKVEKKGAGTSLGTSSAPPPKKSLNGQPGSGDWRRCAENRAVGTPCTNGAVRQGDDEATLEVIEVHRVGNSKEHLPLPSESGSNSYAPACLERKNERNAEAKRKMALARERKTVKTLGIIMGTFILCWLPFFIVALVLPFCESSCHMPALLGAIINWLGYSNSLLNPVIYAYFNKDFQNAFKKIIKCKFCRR", "experiment": "In vitro ability to inhibit [3H]-8-OH-DPAT binding to 5-hydroxytryptamine 1A receptor in rat cortical membranes", "type": "cell membranes"}}, "note": "Active and inactive are the calls of the source. No cut-off for these calls is given here.", "data": [{"smiles": "CCCN(CCC)C1COc2c(SC)ccc(OC)c2C1", "note": "(stereo not given)", "values": [{"measurement": "Activity", "setting": "D(2) dopamine receptor [1]", "value": "Active"}]}, {"smiles": "CCCN(CCC)C1COc2c(cccc2C(=O)c2ccoc2)C1", "note": "(stereo not given)", "values": [{"measurement": "Ki", "setting": "D(2) dopamine receptor [2]", "value": 1.36, "unit": "µM"}, {"measurement": "Ki", "setting": "[3]", "value": 0.0164, "unit": "µM"}]}, {"smiles": "CCCN(CCC)C1COc2c(cccc2C(=O)c2ccsc2)C1", "note": "(stereo not given)", "values": [{"measurement": "Ki", "setting": "D(2) dopamine receptor [2]", "value": "> 1", "unit": "µM"}, {"measurement": "Ki", "setting": "[3]", "value": 0.0073, "unit": "µM"}]}, {"smiles": "CCCN(CCC)C1COc2c(Br)ccc(OC)c2C1", "note": "(stereo not given)", "values": [{"measurement": "Activity", "setting": "D(2) dopamine receptor [1]", "value": "Active"}]}, {"smiles": "CCCN(CCC)C1COc2c(cccc2-c2ccccc2)C1", "note": "(stereo not given)", "values": [{"measurement": "Ki", "setting": "[3]", "value": 0.0011, "unit": "µM"}]}, {"smiles": "CCCN(CCC)C1COc2cccc(O)c2C1", "note": "(stereo not given)", "values": [{"measurement": "Ki", "setting": "D(2) dopamine receptor [2]", "value": "> 3", "unit": "µM"}, {"measurement": "Ki", "setting": "[3]", "value": 0.083, "unit": "µM"}]}, {"smiles": "CCCN(CCC)C1COc2c(cccc2C(=O)c2ccc(OC)cc2)C1", "note": "(stereo not given)", "values": [{"measurement": "Ki", "setting": "D(2) dopamine receptor [2]", "value": "> 1", "unit": "µM"}, {"measurement": "Ki", "setting": "[3]", "value": 0.0105, "unit": "µM"}]}, {"smiles": "CCCN(CCC)C1COc2c(cccc2-c2ccc(C(F)(F)F)cc2)C1", "note": "(stereo not given)", "values": [{"measurement": "Ki", "setting": "D(2) dopamine receptor [2]", "value": 0.763, "unit": "µM"}, {"measurement": "Ki", "setting": "[3]", "value": 0.0638, "unit": "µM"}]}, {"smiles": "CCCN(CCC)C1COc2c(cccc2C(=O)c2ccc(C(C)=O)cc2)C1", "note": "(stereo not given)", "values": [{"measurement": "Ki", "setting": "D(2) dopamine receptor [2]", "value": "> 1", "unit": "µM"}, {"measurement": "Ki", "setting": "[3]", "value": 0.011, "unit": "µM"}]}, {"smiles": "CCCN(CCC)C1COc2c(cccc2-c2ccsc2)C1", "note": "(stereo not given)", "values": [{"measurement": "Ki", "setting": "D(2) dopamine receptor [2]", "value": 0.398, "unit": "µM"}, {"measurement": "Ki", "setting": "[3]", "value": 0.0011, "unit": "µM"}]}, {"smiles": "CCCN(CCC)C1COc2c(cccc2C(=O)c2ccccc2OC)C1", "note": "(stereo not given)", "values": [{"measurement": "Ki", "setting": "D(2) dopamine receptor [2]", "value": "> 1", "unit": "µM"}, {"measurement": "Ki", "setting": "[3]", "value": 0.0608, "unit": "µM"}]}, {"smiles": "CCCN(CCC)C1COc2c(O)cccc2C1", "note": "(stereo not given)", "values": [{"measurement": "Ki", "setting": "D(2) dopamine receptor [2]", "value": 0.128, "unit": "µM"}, {"measurement": "Ki", "setting": "[3]", "value": "> 3", "unit": "µM"}]}, {"smiles": "CCCN(CCC)C1COc2c(cccc2-c2ccc(OC)cc2)C1", "note": "(stereo not given)", "values": [{"measurement": "Ki", "setting": "[3]", "value": 0.0013, "unit": "µM"}]}, {"smiles": "CCCN(CCC)C1COc2c(cccc2-c2ccoc2)C1", "note": "(stereo not given)", "values": [{"measurement": "Ki", "setting": "D(2) dopamine receptor [2]", "value": 0.0475, "unit": "µM"}, {"measurement": "Ki", "setting": "[3]", "value": 0.0057, "unit": "µM"}]}, {"smiles": "CCCN(CCC)C1COc2c(cccc2C(=O)c2ccc(C(F)(F)F)cc2)C1", "note": "(stereo not given)", "values": [{"measurement": "Ki", "setting": "D(2) dopamine receptor [2]", "value": "> 1", "unit": "µM"}, {"measurement": "Ki", "setting": "[3]", "value": 0.0472, "unit": "µM"}]}, {"smiles": "CCCN(CCC)C1COc2c(cccc2-c2ccccc2OC)C1", "note": "(stereo not given)", "values": [{"measurement": "Ki", "setting": "D(2) dopamine receptor [2]", "value": "> 1", "unit": "µM"}, {"measurement": "Ki", "setting": "[3]", "value": 0.0011, "unit": "µM"}]}, {"smiles": "CCCN(CCC)C1COc2c(cccc2C(=O)c2ccccc2)C1", "note": "(stereo not given)", "values": [{"measurement": "Ki", "setting": "D(2) dopamine receptor [2]", "value": "> 1", "unit": "µM"}, {"measurement": "Ki", "setting": "[3]", "value": 0.004, "unit": "µM"}]}]}
